“And” between values parts separate entries of the source, which are not always exact repeats. Equal entries are not always repeated.

For data set [1], the system named is streptozotocin-diabetic rats. Kind of data set: free fatty acid level (in % of controls) upon oral administration to streptozotocin-diabetic rats. The class given is in vivo, rat (Female Albino-rats). As for the experimental part:
(§1) A compound encompassed by the formula I, namely, 3-methyl-N-(5-methyl-3,3-diphenyl-pyrrolin-2-yl)pyrazole-5-carboxamide, upon oral administration to maximal streptozotocin-diabetic rats gave the following values for the glucose and fatty acid levels (in % of controls):
(§2) The test procedure was that described by E. LORCH in Diabetologia 7, 195-203 (1971).
(§3) Female (140-160 gr) Albino-rats were starved (24 hrs) and refed (16 hrs) one week after Streptozotocin administration (60 mg/kg s.c.). Mean plasma glucose values: 500-600 mg/100 ml plasma. Diabetic starved-refed control animals received the suspension vehicle alone.

Data set [2] deals with streptozotocin-diabetic rats. Description: glucose level (in % of controls) upon oral administration to streptozotocin-diabetic rats. Format: in vivo, rat (Female Albino-rats). As to the method: as §1, §2, §3
Data set [3] can be described thus: DL50 in the rat, single oral application. The conditions noted are these: in vivo, observation period 10 days. The text has this:
The DL50 in the rat amounts to 8 g/kg (single oral application: observation period 10 days).

Where [4] appears, read: 100 μmol/kg oral, 4 hours after application.
Setting [5] is: 300 μmol/kg oral, 2 hours after application.
[6] abbreviates: 300 μmol/kg oral, 6 hours after application.
Where [7] appears, read: 1000 μmol/kg oral, 4 hours after application.

For orientation: LD50 means the dose at which mortality reaches 50%. As for `Cc1cc(C(=O)NC2=NC(C)CC2(c2ccccc2)c2ccccc2)[nH]n1` (stereo not drawn) [3-methyl-N-(5-methyl-3,3-diphenyl-1-pyrrolin-2-yl)-pyrazole-5-carboxamide], the Free fatty acids is 56 % of controls in data set [1] (setting [4]); 59 % of controls in data set [1] (setting [5]); 72 % of controls and 62 % of controls in data set [1] (300 μmol/kg oral, 4 hours after application); 50 % of controls in data set [1] (setting [6]); 57 % of controls in data set [1] (setting [7]). Moreover, the Glucose in data set [2] (100 μmol/kg oral, 2 hours after application) is 70 % of controls; in data set [2] (setting [4]) it was 80 % of controls and 96 % of controls and 50 % of controls; in data set [2] (100 μmol/kg oral, 6 hours after application), 60 % of controls; in data set [2] (setting [5]), 76 % of controls and 70 % of controls; in data set [2] (setting [6]), 71 % of controls and 59 % of controls; in data set [2] (setting [7]), 89 % of controls and 80 % of controls. This compound also registered an LD50 at 240 h in data set [3] of 8000 mg/kg.
